Data from patent US9839642B2, “Beta-tetrazolyl-propionic acids as metallo-beta-lactamase inhibitors” (priority 2014, dated 2017).
Like-named read-outs stand apart in the source and are kept apart here.

Experiments:
[1] = test system: Klebsiella pneumoniae expressing VIM-1 (IHMA599644); assay: Antibiotic potentiation activity: synergistic concentration (MITC95) with imipenem, growth by OD600; type: cell-based; details: K. pneumoniae IHMA599644 (VIM-1), 95% inhibition of growth
Summary of the method: (§1)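 Colonies from overnight agar plates (35 °C) were suspended in saline and diluted 1:100 into 1.1× CAMHB. Inhibitor (final 200 μM to 0.195 μM) was combined with imipenem at 1 or 4 μg/ml, incubated 22–24 h at 35 °C, and absorbance read; MITC95 is the lowest inhibitor concentration giving 95% growth inhibition.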

[2] = test system: Serratia marcescens expressing IMP-1 (CL5741); assay: as above; type: cell-based; details: S. marcescens CL5741 (IMP-1), 95% inhibition of growth
Summary of the method: as §1

[3] = test system: Escherichia coli expressing NDM-1 (CLB30016); assay: as above; type: cell-based; details: E. coli CLB30016 (NDM-1), 95% inhibition of growth
Summary of the method: as §1

VIM-1 = VIM-1 (Pseudomonas aeruginosa, UniProt A0A0F7KYQ8); assay: Enzyme activity: determination of IC50, fluorescence assay with CCF2-FA substrate; type: biochemical; details: VIM-1 enzyme 30 pM, CCF2-FA 1.25 μM, 2 hours at 25° C.; read-out: VIM1 IC50
Summary of the method: (§2)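 Enzyme at 1 pM (NDM-1), 2 pM (IMP-1) or 30 pM (VIM-1) was incubated with inhibitor (20 μM to 0.00063 μM) and 1.25 μM CCF2-FA in 100 mM KH2PO4 pH 7, 0.005% Tween-20, 10 μM ZnSO4 for 2 hours at 25° C. Fluorescence was read at ex 405/em 460 nm; IC50 from 4-parameter fit.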

IMP-1 = IMP-1 (Serratia marcescens, UniProt P52699); assay: as above; type: biochemical; details: IMP-1 enzyme 2 pM, CCF2-FA 1.25 μM, 2 hours at 25° C.; read-out: IMP1 IC50
Summary of the method: as §2

NDM-1 = NDM-1 (Klebsiella pneumoniae, UniProt C7C422); assay: as above; type: biochemical; details: CCF2-FA 1.25 μM, 2 hours at 25° C.
Summary of the method: as §2

[4] = NDM-1 enzyme 1 pM, read-out: NDM1 IC50

Sequence of IMP-1 (P52699 19-246, looked up, species assumed): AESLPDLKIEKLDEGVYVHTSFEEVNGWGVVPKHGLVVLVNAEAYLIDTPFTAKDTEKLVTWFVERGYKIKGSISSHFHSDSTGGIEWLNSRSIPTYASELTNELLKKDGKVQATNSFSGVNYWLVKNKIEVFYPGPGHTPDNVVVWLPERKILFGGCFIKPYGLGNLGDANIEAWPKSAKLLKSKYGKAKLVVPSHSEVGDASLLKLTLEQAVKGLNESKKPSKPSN
Sequence of NDM-1 (C7C422 29-270, looked up, species assumed): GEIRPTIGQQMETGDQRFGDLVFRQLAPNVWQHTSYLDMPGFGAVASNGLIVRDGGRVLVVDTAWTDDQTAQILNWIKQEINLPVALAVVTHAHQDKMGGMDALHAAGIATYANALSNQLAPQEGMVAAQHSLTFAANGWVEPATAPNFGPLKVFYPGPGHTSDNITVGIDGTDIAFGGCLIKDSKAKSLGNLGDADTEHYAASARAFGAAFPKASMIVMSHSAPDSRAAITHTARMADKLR

SMILES | VIM1 KP599644 MITC95 [1] [µM] | IMP1 SM5741 MITC95 [2] [µM] | NDM1 EC30016 MITC95 [3] [µM] | IC50 (VIM-1) [nM] | IC50 (IMP-1) [nM] | IC50 (NDM-1; [4]) [nM] | IC50 (NDM-1; NDM1 IC50, NDM-1 enzyme 1 pM) [nM]
CCC[C@H](C(=O)O)[C@H](Cc1ccc(C(=O)N2CCC(N)CC2)cc1)c1nnn[nH]1 [Example 278, (2S)-2-[(1S)-2-{4-[(4-aminopiperidin-1-yl)carbonyl]phenyl}-1-(1H-tetrazol-5-yl)ethyl]pentanoic acid] | 50 | 6.2 | 12.5 | 120 | 200 | 10 | 
CCC[C@H](C(=O)O)[C@H](Cc1ccc(C(=O)NC)cc1)c1nnn[nH]1 [Example 279, (2S)-2-[(1S)-2-[4-(methylcarbamoyl)phenyl]-1-(1H-tetrazol-5-yl)ethyl]pentanoic acid] | >200 | >200 | 150 | 100 | 9500 | 1000 | 
CCC[C@H](C(=O)O)[C@H](Cc1ccc(C(=O)NCCO)cc1)c1nnn[nH]1 [Example 280, (2S)-2-[(1S)-2-{4-[(2-hydroxyethyl)carbamoyl]phenyl}-1-(1H-tetrazol-5-yl)ethyl]pentanoic acid] | 25 | 25 | 18.8 | 2.7 | 880 | 140 | 
CCC[C@H](C(=O)O)[C@H](Cc1ccc(C(=O)NC2CC2)cc1)c1nnn[nH]1 [Example 281, (2S)-2-[(1S)-2-[4-(cyclopropylcarbamoyl)phenyl]-1-(1H-tetrazol-5-yl)ethyl]pentanoic acid] | 200 | 200 | 100 | 86 | 5300 | 770 | 
CCC[C@H](C(=O)O)[C@H](Cc1ccc(C(=O)NCC2CC2)cc1)c1nnn[nH]1 [Example 282, (2S)-2-[(1S)-2-{4-[(cyclopropylmethyl)carbamoyl]phenyl}-1-(1H-tetrazol-5-yl)ethyl]pentanoic acid] | 50 | 50 | 18.8 | 19 | 730 | 98 | 
CCC[C@H](C(=O)O)[C@H](Cc1ccc(C(=O)O)cc1)c1nn[nH]n1 [Example 283, 4-((2S,3S)-3-carboxy-2-(2H-tetrazol-5-yl)hexyl)benzoic acid] | 200 | 38 | 100 | 17 | 850 | 50 | 
CCC[C@H](C(=O)O)[C@H](Cc1nnc(N)s1)c1nnn[nH]1 [Example 284, (S)-2-((S)-2-(5-amino-1,3,4-thiadiazol-2-yl)-1-(1H-tetrazol-5-yl)ethyl)pentanoic acid] | 38 | >200 | 25 | 340 | > 20000 | 13000 | 
CCC[C@H](C(=O)O)[C@H](Cc1cnc(SC)nc1)c1nnn[nH]1 [Example 285, (S)-2-((S)-2-(2-(methylthio)pyrimidin-5-yl)-1-(1H-tetrazol-5-yl)ethyl)pentanoic acid] | 25 | >200 | 25 | 3.3 | 14000 | 190 | 
CCC[C@H](C(=O)O)[C@H](Cc1cnc(S(C)(=O)=O)nc1)c1nnn[nH]1 [Example 286, (S)-2-((S)-2-(2-(methylsulfonyl)pyrimidin-5-yl)-1-(1H-tetrazol-5-yl)ethyl)pentanoic acid] | 18.8 | >200 | 25 | 37 | > 20000 | 4600 | 
CCC[C@H](C(=O)O)[C@H](Cc1cnc(N2CCOCC2)nc1)c1nnn[nH]1 [Example 287, (S)-2-((S)-2-(2-morpholinopyrimidin-5-yl)-1-(1H-tetrazol-5-yl)ethyl)pentanoic acid] | 50 | 75 | 25 | 5 | 9200 | 100 | 
CCC[C@H](C(=O)O)[C@H](Cc1cnc(N2CCNCC2)nc1)c1nnn[nH]1 [Example 288, (S)-2-((S)-2-(2-(piperazin-1-yl)pyrimidin-5-yl)-1-(1H-tetrazol-5-yl)ethyl)pentanoic acid] | 12.5 | 150 | 12.5 | 4.1 | > 20000 |  | 520
CCC[C@H](C(=O)O)[C@H](Cc1cnc(OC2CCNCC2)nc1)c1nnn[nH]1 [Example 289, (S)-2-((S)-2-(2-(piperidin-4-yloxy)pyrimidin-5-yl)-1-(1H-tetrazol-5-yl)ethyl)pentanoic acid] | 38 | >200 | 25 | 6.8 | > 20000 | 3100 | 
CCC[C@H](C(=O)O)[C@H](Cc1cnc(N(C)C)nc1)c1nnn[nH]1 [Example 290, (S)-2-((S)-2-(2-(dimethylamino)pyrimidin-5-yl)-1-(1H-tetrazol-5-yl)ethyl)pentanoic acid] | 38 | 150 | 18.8 | 2.1 | 14000 | 110 | 
CCC[C@H](C(=O)[O-])[C@H](Cc1ccc(C2CC[N+](C)(C)CC2)nc1)c1nnn[nH]1 [Example 291, (S)-2-((S)-2-(6-(1,1-dimethylpiperidin-1-ium-4-yl)pyridin-3-yl)-1-(1H-tetrazol-5-yl)ethyl)pentanoate] | 38 | 50 | 3.1 | 120 | 6500 | 650 | 
CCC[C@H](C(=O)[O-])[C@H](Cc1ccc(C2CCC[N+](C)(C)C2)nc1)c1nnn[nH]1 (stereo partly drawn) [Example 292, (2S)-2-((1S)-2-(6-(1,1-dimethylpiperidin-1-ium-3-yl)pyridin-3-yl)-1-(1H-tetrazol-5-yl)ethyl)pentanoate] | 50 | 150 | 38 | 78 | 16000 | 2600 | 
CCC[C@H](C(=O)[O-])[C@H](Cc1ccc(C2=CCC[N+](C)(C)C2)nc1)c1nnn[nH]1 [Example 293, (S)-2-((S)-2-(1′,1′-dimethyl-1′,2′,5′,6′-tetrahydro-[2,3′-bipyridin]-1′-ium-5-yl)-1-(1H-tetrazol-5-yl)ethyl)pentanoate] | 50 | 100 | 25 | 22 | 16000 | 2400 | 
CCC[C@H](C(=O)[O-])[C@H](Cc1ccc(C2CC[N+](C)(C)CC2)cc1)c1nnn[nH]1 [Example 294, (S)-2-((S)-2-(4-(1,1-dimethylpiperidin-1-ium-4-yl)phenyl)-1-(1H-tetrazol-5-yl)ethyl)pentanoate] | 25 | 9.4 | 12.5 | 76 | 690 | 170 | 
